We go through 1 compound from paper PMC7708037, “Targeting OGG1 arrests cancer cell proliferation by inducing replication stress” (Nucleic Acids Research, 2020).

The target of data set [1] is OGG1 enzyme (Homo sapiens, UniProt O15527). Nature of the data set: Cellular thermal shift assay in excised xenograft tumors. The data set is classed as in vivo. Details: endogenous in cells; host or cells: A3 T-cell acute lymphoblastic leukemia cells (luciferase-transfected) grown as subcutaneous xenograft tumours in NOD-SCID mice. Particulars: A3 xenograft tumors excised following termination. How it is done:
Animal experiments were conducted as per the European directive, ethical guideline and regulations of the regional animal ethical committee Stockholm 2010/63 (N8914). Upon arrival to animal facility, animals were acclimatized in the animal house for a week with ad lib food and water, with a 12 h light cycle and the temperature and humidity set according to laboratory animal guidelines and regulations. For the xenograft experiment involving inducible shRNA, 1 × 10^7 non-targeting luciferase transfected A3 cells in 50% matrigel in PBS were injected into flank region of BALB/c nude mice. Later, mice from non-targeting and shRNA groups were randomly divided into two groups containing eight mice per group. […] Tumor volume was measured using calipers (length × 0.52 × width × width) and bioluminescence images were taken using an IVIS spectrum in vivo imaging system (Perkin-Elmer) after intraperitoneal injection of D-luciferin (150 mg/kg in PBS). […] Following lysis by three freeze-thaw cycles, samples were centrifuged at 20 000 × g for 30 min, and OGG1 in the supernatant was detected by immunoblotting. […]
Figure 7. […] Tumors were excised following termination, and TH5487 target engagement was analyzed by cellular thermal shift assay, using an antibody specific for the human OGG1 protein. […]

Data set [2] has as its system MCM4 mRNA in A3 cells. Kind of data set: Real time PCR of MCM4 mRNA. The format is cell-based, human. Particulars: 10 μM, 72 h. How it is done:
RNA was extracted from cultured cells using TRIzol® Reagent (Thermo Fisher Scientific). RNA quantity and quality were assessed by NanoDrop® (ND-1000 V3.7.1; Thermo Fisher Scientific). The High-Capacity cDNA Reverse Transcription Kit (Applied Biosystems) was utilized for cDNA synthesis following the manufacturer's instructions. Two microliters of cDNA at a final concentration of 10 ng/μl were mixed with GoTaq® qPCR MasterMix 1× (Promega) and 1 μM cDNA primers of each pair of primers (F/R) in a final volume reaction of 10 μl. Primers used are listed in Supplementary Table S2. The amplification conditions consisted of an initial step at 95°C for 10 min, followed by 40 cycles of 10 s at 95°C and 1 min at 60°C. Each qPCR was performed in duplicates or triplicates including no-template controls in an Abi QuantStudio 1 Flex Real-Time PCR System (Applied Biosystems). Relative transcript levels for each replication gene, was calculated using the 2ΔΔCt method for qPCR analysis after normalization with the housekeeping gene beta-actin (B-actin-F 5′-CCTGGCACCCAGCACAAT- 3′; B-actin-R 5′ - GGGCCGGACTCGTCATACT-3′).
Figure 6. […] Only genes with a mean normalized count >5 were analyzed. […] Statistical significance was determined using a two-sided unpaired t-test (ns, non-significant, *P < 0.05, **P < 0.01, ***P < 0.001 and ****P < 0.0001).
A general note: In qPCR the cycle at which signal appears reflects the starting amount.

On the set-up of data set [3]: method as in PMID 30442810. The note with it: cited from earlier work.

SMILES strings stand for the structures.

OGG1 enzyme, sequence (O15527 whole entry): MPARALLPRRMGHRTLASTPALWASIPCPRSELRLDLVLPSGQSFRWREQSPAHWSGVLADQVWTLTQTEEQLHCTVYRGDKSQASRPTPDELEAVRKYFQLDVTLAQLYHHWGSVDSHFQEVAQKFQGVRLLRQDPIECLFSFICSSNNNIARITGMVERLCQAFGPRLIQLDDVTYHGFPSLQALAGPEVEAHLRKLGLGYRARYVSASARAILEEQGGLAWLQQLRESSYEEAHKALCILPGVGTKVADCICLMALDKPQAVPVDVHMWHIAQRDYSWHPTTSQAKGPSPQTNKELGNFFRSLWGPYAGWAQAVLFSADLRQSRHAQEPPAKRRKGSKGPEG

With `O=C(Nc1ccc(I)cc1)N1CCC(n2c(=O)[nH]c3c(Br)cccc32)CC1` [TH5487], the “OGG1 target engagement in xenograft tumor (CETSA)” value in data set [1] is on record as “unable to demonstrate OGG1 target engagement”. Further, in data set [2], the “MCM4 mRNA levels” value is given as “slight but significant downregulation”. Moreover, the “Stability in mouse serum” value in data set [3] was “stable”.
